# Reference: publication PMC9697349, “Mouse Pharmacokinetics and In Vitro Metabolism of SH-11037 and SH-11008, Synthetic Homoisoflavonoids for Retinal Neovascularization” (Pharmaceutics, 2022)
# Legend:
# [1] = set-up: method as in PMID 30713251; conditions: cited from earlier work
# [2] = format: in vitro ADME; conditions: BNPP 1 mM, 2 h preincubation; SH-11037 1 µM, mouse eye homogenate, 1 min
# Experimental: (§1) Chemical inhibition assay was conducted in mouse, dog, and human plasma and mouse eye homogenate to identify the enzyme(s) involved in the hydrolysis of SH-11037. BW284c51 [16], DTNB [17], EPZ [18], and BNPP [19, 20] were used as selective inhibitors of acetylcholinesterase (AChE), paraoxonase 1 (PON1), butyrylcholinesterase (BchE), and carboxylesterase (CES), respectively. Mouse eyes (male ICR mouse, 8 weeks old) taken immediately after CO2 asphyxiation were homogenized by an electric tissue homogenizer (Tissue Master-125, Omni International, Kennesaw, GA, USA) in an equal amount of 0.1 M potassium phosphate buffer (pH 7.4) on ice. The resulting homogenate was then centrifuged at 3000× g for 20 min. The supernatant was stored at −80 °C until the experiment. DMSO stock solutions of the inhibitors (0.4, 4 and 40 mM) were mixed with plasma diluted 3-fold with 0.1 M phosphate buffer (pH 7.4) to a final volume of 160 μL and final inhibitor concentrations of 0.01, 0.1, and 1 mM. The supernatant of mouse eye homogenate was treated similarly with only BNPP as the inhibitor and a single inhibitor concentration of 1 mM. The resulting pre-incubation solutions were then incubated for 2 h at 37 °C in a shaking water bath. SH-11037 (40 μM) in 50 vol% aqueous CH3CN was mixed with the pre-incubation solutions to a final volume of 160 μL and a final concentration of 1 μM. The resulting solutions were then incubated at 37 °C in a shaking water bath. The incubations were terminated at selected times by adding 160 µL of ice-cold CH3CN containing glipizide (500 ng/mL) as the IS. The resulting mixture was vortexed, sonicated, and centrifuged at 3000× g for 20 min. Aliquots of the supernatant were subjected to LC-MS/MS analysis described below in Section 2.6.2.
# (§2) The LC-MS/MS system consisted of Agilent 1290 Infinity HPLC system and Agilent 6530 Accurate-Mass Quadrupole Time-of-Flight (Q-TOF) mass spectrometer equipped with dual AJS ESI ion source (Agilent Technologies Korea, Seoul, Korea). Chromatographic separation was performed on an Agilent Eclipse Plus C18 column (2.1 × 100 mm, 3.5 μm) with a Phenomenex Security Guard C18 guard column (4 × 20 mm) maintained at 40 °C. The mobile phase consisted of 0.1% formic acid in deionized water (A) and 0.1% formic acid in CH3CN (B): 0~2 min 5% B, 2~7 min to 95% B, and 7~10 min 95% B. Total run time including a 5 min equilibration time was 15 min. The flow rate was 0.4 mL/min. The injection volume was 5 µL. The mass spectrometer was operated in a positive Auto MS/MS scan mode with a full scan mass range of m/z 100–1000, fragmentor voltage 150 V, and CE 30 eV, selecting the two most intense precursor ions for collision-induced dissociation. Putative metabolites were identified using Agilent Mass Hunter Metabolite ID software (ver.B.04.00) followed by manual interpretation of the spectral data. Chromatograms and mass spectra were extracted using Agilent Mass Hunter Qualitative Analysis software (ver. B.05.00).
# [3] = tested on: hydrolysis of SH-11037 in mouse plasma; format: in vitro ADME; conditions: inhibitor 1 mM; SH-11037 1 µM, mouse plasma, 1 min, 37 °C
# Experimental: as §1, §2
SMILES,oral absorption [1],systemic clearance (CL) [1],effect of inhibitor on SH-11037 hydrolysis [2],SH-11008 Formation (%) in presence of inhibitor [3]
"COc1ccc(CC2COc3cc(O)c(OC)c(O)c3C2=O)cc1O (stereo not shown) [cremastranone, Cremastranone]",poor,high,–,–
"O=[N+]([O-])c1ccc(OP(=O)(O)Oc2ccc([N+](=O)[O-])cc2)cc1 [BNPP, bis(4-nitrophenyl)phosphate, reference compound]",–,–,inhibited the hydrolysis nearly completely,completely inhibited
